Consider six molecules from paper PMC12051030, “Identification of inhibitors of the Salmonella FraB deglycase, a drug target” (FEBS Open Bio, 2025).

This assay deals with His6‐FraB (Salmonella FraB deglycase) (Salmonella enterica subsp. enterica serovar Typhimurium, UniProt Q8ZLD0). The experiment in a line: FraB-G6PD coupled assay, IC50 determination. In kind it is biochemical. How it is done:
The substrate for FraB, 6‐P‐F‐Asp, was synthesized as previously described. FraB activity was monitored as described previously, with the following changes. The final reaction (30 μL) consisted of 25 mM HEPES pH 8 (at 20 °C), 5 mM MgCl2, 0.1 mM ethylene glycol tetraacetic acid (EGTA), 0.5 mM NAD^+, 1 mU G6PD from Leuconostoc mesenteroides (#LS003981; Worthington Biochemicals, Lakewood, NJ, USA), 100 nM His6‐FraB, and 0–3 mM 6‐P‐F‐Asp. The reaction mixture without substrate (29 μL) was added to one well of a 384‐well polystyrene white μClear® microplate (#781095; Greiner Bio‐One, Monroe, NC, USA) and incubated at 37 °C for 2 min, prior to the addition of 1 μL substrate to initiate the reaction. NADH generation was monitored using either absorbance (340 nm) or fluorescence (350 nm excitation, 450 nm emission) and with either an INFINITE M1000 PRO (Tecan, Mannedorf, Switzerland) or Synergy H1 (Biotek, Winooski, VT, USA) plate reader. Absorbance/fluorescence was plotted against time and slopes were obtained by linear regression analyses. These slopes were converted into initial velocities by dividing them by either the absorbance extinction coefficient (ε340 = 6,220 M ^−1·cm^−1) or the molar fluorescence determined based on standard curves obtained in different plate readers (23,646 RFUs·μM ^−1, Tecan; 285,108 RFUs·μM ^−1, Biotek; Fig. S2). These initial velocities (v o) in turn were plotted against [6‐P‐F‐Asp] to obtain Michaelis–Menten curves that were fit to the formula v o = (V max × [S])/(K m + [S]) by Kaleidagraph (Version 4.5.3; Synergy Software, Reading, PA, USA). The activity of recombinant FraB (Fig. S3) was similar to that as reported previously.
For determining the IC50 value of each compound, 26 μL of master mix was added to two rows (48 wells) of a 384‐well Greiner plate followed by 3 μL of inhibitor to four wells per concentration (12 concentrations total) using a single‐channel pipette. After mixing with a 12‐channel pipette, the plate was incubated at 20 °C for 20 min. To initiate the reaction, a 12‐channel pipette was used to add and mix 1 μL of 7.5 mM 6‐P‐F‐Asp to all 48 wells. The final reaction (30 μL) consisted of 25 mM HEPES pH 8.0 at 20 °C, 5 mM MgCl2, 0.1 mM EGTA, 0.5 mM NAD^+, 1 mU G6PD, 100 nM His6‐FraB, 0.25 mM 6‐P‐F‐Asp, and varying concentrations of inhibitor (10% v/v DMSO). NADH fluorescence was monitored every 10 s for 10 min total on a SPARK® multi‐mode multiplate reader (Tecan), as described above, and plotted against time. Slopes of the linear range of each curve were converted to initial velocities, as described above, that were then plotted against (inhibitor). Kaleidagraph was used to fit a sigmoidal curve to each plot using the following formula in order to determine the [IC50]: % inhibition = 100/1 + (IC50/[I]), where I is [inhibitor] [48].

The mark [1] stands for this setting: 0.25 mM 6‐P‐F‐Asp, mean and standard error from two measurements, read-out: IC50.
[2] abbreviates: Trial 1, 0.25 mM 6-P-F-Asp, unit in Fig. S10, read-out: IC50 (curve fit of IC50 plots, Fig. S10).
[3] abbreviates: Trial 2, 0.25 mM 6-P-F-Asp, unit in Fig. S10, read-out: IC50 (curve fit of IC50 plots, Fig. S10).

Where “and” joins values, the source holds several entries; their conditions need not be identical. Equal values may be shown once. Read-outs that look alike come from different tables or passages of the source.

His6‐FraB (Salmonella FraB deglycase), sequence (Q8ZLD0 entry or part of it): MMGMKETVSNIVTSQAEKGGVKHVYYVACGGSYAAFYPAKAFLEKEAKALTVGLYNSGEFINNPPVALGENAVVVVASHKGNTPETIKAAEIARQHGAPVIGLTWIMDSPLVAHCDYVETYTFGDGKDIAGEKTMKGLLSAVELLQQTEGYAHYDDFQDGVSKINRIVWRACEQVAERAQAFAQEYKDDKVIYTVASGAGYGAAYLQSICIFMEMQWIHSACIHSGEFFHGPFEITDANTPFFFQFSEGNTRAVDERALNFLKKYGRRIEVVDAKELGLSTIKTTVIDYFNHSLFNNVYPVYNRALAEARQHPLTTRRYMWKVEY

Regarding `Cc1cccc(Cl)c1-n1sc(=O)n(CC2CC2)c1=O` [1524:E12, 2‐(2‐chloro‐6‐methylphenyl)‐4‐(cyclopropylmethyl)‐1,2,4‐thiadiazolidine‐3,5‐dione], the IC50 is 4.3 µM under setting [1]; 4.28 µM and 4.3 µM under setting [2]; 4.29 µM and 4.3 µM under setting [3].
Consider `O=c1[nH][nH]c(=S)n1Cc1ccccc1` [1533:K12, 4‐benzyl‐5‐sulfanylidene‐1,2,4‐triazolidin‐3‐one], for which the 50% inhibitory concentration (IC50) under setting [1] worked out at 27.6 ± 3.9 µM, the IC50 under setting [2] came to 31.5 µM and the half-inhibitory concentration (IC50) under setting [3] was 23.7 µM.
Regarding `Fc1ccc(-c2nn3c(-c4ccccn4)nnc3s2)cc1` [3469:N17, 6‐(4‐fluorophenyl)‐3‐pyridin‐2‐yl‐[1,2,4]triazolo[3,4‐b][1,3,4]thiadiazole], the half-maximal inhibitory concentration (IC50) is, setting by setting: (IC50 (curve fit of IC50 plots, Fig. S10), Trial 1, 0.25 mM 6-P-F-Asp, unit in Fig. S10) 113 µM; (IC50 (curve fit of IC50 plots, Fig. S10), Trial 2, 0.25 mM 6-P-F-Asp, unit in Fig. S10) 86.7 µM; (IC50, 0.25 mM 6‐P‐F‐Asp, mean and standard error from two measurements) 100 ± 13 µM.
With `O=c1sn(-c2ccccc2C(F)(F)F)c(=O)n1CC1CC1` [1524:G12, 4‐(cyclopropylmethyl)‐2‐[2‐(trifluoromethyl)phenyl]‐1,2,4‐thiadiazolidine‐3,5‐dione], the 50% inhibitory concentration (IC50) runs as follows: under setting [1], 2.8 ± 0.4 µM; under setting [2], 3.24 µM and 3.2 µM; under setting [3], 2.39 µM and 2.4 µM.
Take `c1ccc(-c2nnc3sc(C4COc5ccccc5O4)nn23)nc1` (stereo not drawn) [3469:F02, 6‐(2,3‐dihydro‐1,4‐benzodioxin‐3‐yl)‐3‐pyridin‐2‐yl‐[1,2,4]triazolo[3,4‐b][1,3,4]thiadiazole]: the IC50 is, setting by setting: under setting [1], 42 ± 2.6 µM; under setting [2], 44.5 µM and 44.4 µM; under setting [3], 39.3 µM.
`CC(C)Cc1cc(-c2nn3c(-c4ccccc4Cl)nnc3s2)n[nH]1` [3470:A09, 3‐(2‐chlorophenyl)‐6‐[5‐(2‐methylpropyl)‐1H‐pyrazol‐3‐yl]‐[1,2,4]triazolo[3,4‐b][1,3,4]thiadiazole]: the IC50 came out at 15.4 ± 0.4 µM under setting [1], 15.8 µM under setting [2] and 15 µM under setting [3].

One may read the IC50 as the concentration needed to halve the response being measured.
